Reference: paper PMC5423902, “CXCL9-Derived Peptides Differentially Inhibit Neutrophil Migration In Vivo through Interference with Glycosaminoglycan Interactions” (Frontiers in Immunology, 2017)

Key:
[1] = tested on: CXCL8-induced neutrophil migration; experiment: CXCL8-induced neutrophil migration to the knee cavity; type: in vivo, mouse (C57BL/6); settings: 66 µg peptide i.v., 1 µg CXCL8 intra-articular, C57BL/6, 3 h, n ≥ 5, Figure 5
Experimental: In vivo neutrophil extravasation to the peritoneal or the knee cavity was examined, respectively, by intraperitoneal or intra-articular injection, of endotoxin-free recombinant CXCL8(1-77) (PeproTech) or vehicle (PBS) in female NMRI or C57BL/6 mice, as described previously ([42], [48]). Simultaneously, synthetic CXCL9 peptide was co-injected either intraperitoneally or injected intravenously. After 2 h (peritoneal cavity) or 3 h (knee cavity), mice were sacrificed. The peritoneal cavity was washed with saline enriched with 2% FCS and 20 U/ml heparin and total leukocyte counts were determined. For the preparation of cytospins, 10^5 cells were used and absolute number and percentage of neutrophils in the lavages were determined in duplicate independently by two researchers by differential microscopic counting. […] The number of total leukocytes was determined by counting leukocytes in a Neubauer chamber after staining with Turk’s solution. […]
Figure 5 CXCL9(74-93) inhibits CXCL8-induced but not monosodium urate (MSU) crystal-induced neutrophil migration to the knee cavity. […] Simultaneously, 66 µg of CXCL9(74-93) was injected intravenously and 3 h post injection the number of total cells (A) and neutrophils (B) were evaluated by washing the cavity and differentially counting the leukocyte subtypes on May-Grunwald-Giemsa-stained cytospins. […]

[2] = tested on: MSU crystal-induced neutrophil migration; experiment: MSU crystal-induced gout in mice (neutrophil migration to knee); type: in vivo, mouse (C57BL/6); settings: 66 µg peptide i.v.; MSU crystals 100 µg, C57BL/6, 3 h, n ≥ 5; Figure 5
Experimental: Monosodium urate crystals were prepared as described previously ([42], [49]) and were injected (100 µg in 10 µl) in the tibiofemoral knee joint of C57Bl/6 mice. A group of mice received CXCL9 peptide or vehicle intravenously and the cells present in the tibiofemoral articulation were harvested 3 h after MSU crystal administration. The total and differential leukocyte counts were determined.
Figure 5 CXCL9(74-93) inhibits CXCL8-induced but not monosodium urate (MSU) crystal-induced neutrophil migration to the knee cavity. CXCL8(1-77) (1 µg) or MSU crystals (100 µg) were injected into the tibiofemoral articulation of C57BL/6 mice (n ≥ 5). Simultaneously, 66 µg of CXCL9(74-93) was injected intravenously and 3 h post injection the number of total cells (A) and neutrophils (B) were evaluated by washing the cavity and differentially counting the leukocyte subtypes on May-Grunwald-Giemsa-stained cytospins. The total numbers of leukocytes and neutrophils are shown for every individual mouse, and the horizontal lines denote the median number of cells. To detect statistically significant differences, the Mann–Whitney U-test was carried out (*p < 0.05; **p < 0.01; ***p < 0.005).

[3] = tested on: CXCL8(1-77) binding to heparin; settings: compared with CXCL9(74-103) missing 5 to 12 NH2-terminal residues; cited from earlier work
Experimental: To further investigate the role of the COOH-terminal amino acids, the ability of CXCL9(74-93) to inhibit binding of chemokines to heparin and HS was evaluated. CXCL9(74-93) and CXCL9(74-103) together with a COOH-terminal peptide of one of the strongest GAG-binding chemokines, namely, CXCL4(47-70), were compared in an ELISA-like assay to compete with CXCL8 for heparin bind ...

[4] = tested on: CXCL8-induced neutrophil migration; settings: CXCL8 into tibiofemoral articulation of C57BL/6 mice; cited from earlier work
dengue virus = settings: cited from earlier work
Text: (§1) In several inflammatory diseases, an enhanced expression of chemokines leads to the pathological and continuous accumulation of activated leukocytes in tissues and consequently tissue damage. Thus, a reduction of chemokine activity at sites of excessive inflammation is needed. Although a lot of efforts were invested in the development of small molecule chemokine receptor antagonists, since the discovery of chemokine receptors as members of the GPCR family about two decades ago, success stories are limited to a few drugs that entered the market ([66]). Recently, inhibition of chemokine–GAG inte ...

herpes simplex virus-1 = settings: cited from earlier work
Text: as §1

[5] = tested on: respiratory syncytial virus; settings: cited from earlier work
Text: as §1

| Substance | neutrophils in the joint upon CXCL8 ([1]; control 13.3 × 10^3) | percentage of neutrophils in the joint upon CXCL8 ([1]; control 60.5%) | inhibition of MSU crystal-induced neutrophil migration to the joint [2] | competition with CXCL8 for heparin binding [3] | inhibition of neutrophil chemotactic activity of CXCL8 in the tibiofemoral articulation [4] | inhibition of viral infection of cells (dengue virus) | inhibition of viral infection of cells (herpes simplex virus-1) | inhibition of viral infection of cells [5] |
| --- | --- | --- | --- | --- | --- | --- | --- | --- |
| 74KKKQKNGKKHQKKKVLKVRK93 [CXCL9(74-93), COOH-terminal peptide of CXCL9 lacking the 10 COOH-terminal amino acids of CXCL9(74-103)] | 0.67 × 10^3 neutrophils | 17.5% | could not inhibit MSU crystal-induced neutrophil migration to the joint |  |  |  |  |  |
| 74KKKQKNGKKHQKKKVLKVRKSQRSRQKKTT103 [CXCL9(74-103), COOH-terminal peptide of CXCL9] |  |  |  | more potently competes with CXCL8 for binding to heparin | could inhibit the neutrophil chemotactic activity of CXCL8 in vivo | able to inhibit viral infection of cells | able to inhibit viral infection of cells | able to inhibit viral infection of cells |
